Counter-ions that a name gives are not always drawn. Like-named read-outs stand apart in the source and are kept apart here. Values belong to the compound of their own block, whether it stands above or below them.
Experiments:
[1] = target: T1, human LTA4 hydrolase (Homo sapiens, UniProt P09960); test: In vitro assay testing inhibitory activity against purified recombinant human LTA4 hydrolase; assay type: biochemical
T1 construct: A human LTA4 hydrolase full-length cDNA clone (NM_000895) was purchased; His tag (own knowledge: pDEST17 adds an N-terminal 6xHis); made in house; host or cells: Escherichia coli BL21-AI
T1 sequence (P09960 1-611): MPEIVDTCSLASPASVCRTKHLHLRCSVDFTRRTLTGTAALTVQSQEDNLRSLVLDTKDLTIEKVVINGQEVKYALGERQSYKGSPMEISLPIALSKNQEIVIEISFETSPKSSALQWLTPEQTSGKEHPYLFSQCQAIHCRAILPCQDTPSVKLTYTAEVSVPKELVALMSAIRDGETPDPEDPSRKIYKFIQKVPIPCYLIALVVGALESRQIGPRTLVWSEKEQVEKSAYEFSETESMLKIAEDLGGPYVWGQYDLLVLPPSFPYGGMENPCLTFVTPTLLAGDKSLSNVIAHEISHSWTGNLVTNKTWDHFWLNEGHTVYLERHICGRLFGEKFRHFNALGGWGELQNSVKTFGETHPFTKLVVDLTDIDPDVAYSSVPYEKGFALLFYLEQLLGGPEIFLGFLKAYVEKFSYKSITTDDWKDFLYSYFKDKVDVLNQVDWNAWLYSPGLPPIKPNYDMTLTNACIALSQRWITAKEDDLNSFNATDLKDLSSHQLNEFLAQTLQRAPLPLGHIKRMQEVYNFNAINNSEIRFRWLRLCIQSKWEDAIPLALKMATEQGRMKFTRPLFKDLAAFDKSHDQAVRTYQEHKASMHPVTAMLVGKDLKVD
Description: (1) In vitro Assay Testing Inhibitory Activity Against Purified Recombinant Human LTA4 Hydroase:
A human LTA4 hydrolase full-length cDNA clone (NM_000895) was purchased from OriGene Technologies (Rockville, Md.). The gene was amplified by polmerase chain reaction and transferred via pDONR201 into the bacterial expression vector pDEST17 by recombination (both plasmids from Invitrogen, Carlsbad, Calif.). The resulting construct was transformed into Escherichia coli BL21-AI (Invitrogen), and expression was induced by chemical induction with arabinose. The recombinant enzyme was purified by chromatography on a FPLC system (Amersham Biosciences, Uppsala, Sweden) using immobilized metal affinity chromatography (Ni-NTA Superflow, Qiagen, Hilden, Germany) and anion exchange chromatography (MonoQ HR 10/10, Amersham Biosciences).
(§1) The compounds of the invention were incubated in a series of dilutions with 200 nM of recombinant enzyme in assay buffer (100 mM Tris-HCl, 100 mM NaCl, 5 mg/ml fatty-acid free BSA, 10% DMSO, pH 8.0) for 10 min at room temperature to allow binding between LTA4 hydrolase and the inhibitors. LTA4 was prepared by alkaline hydrolysis of LTA4 methyl ester (Biomol, Plymouth Meeting, Pa., or Cayman Chemicals, Ann Arbor, Mich.). A solution of 10 μg of the ester was dried under a nitrogen stream and redissolved in 60 μl of a solution of 80% aceton and 20% 0.25 M NaOH.
After incubation for 40 min at room temperature the resulting approximately 500 μM tock of LTA4 was kept at −80° C. for no more than a few days prior to use.
Immediately before the assay, LTA4 was diluted to a concentration of 10 μM in assay buffer (without DMSO) and added to the reaction mixture to a final concentration of 2 μM to initiate the enzyme reaction. After incubation for 120 sec at room temperature, the reaction was stopped by ading 2 volumes of chilled quenching buffer, containing acetonitril with 1% acetic acid and 225 nM LTB4-d4 (Biomol). The samples were then kept at 4° C. over night to complete protein precipitation and centrifuged for 15 min at 1800 g. LTB4 formed was measured by LC-MS/MS using LTB4-d4 as an internal standard and an external LTB4 standard (Biomol) as reference. Briefly, the analyte was separated from LTB4 isomers formed by spontaneous hydrolysis of LTA4 using isocratic elution (modified protocol from Mueller et al. (1996), J. Biol. Chem. 271, 24345-24348) on a HPLC system (Waters, Milford, Mass.) and analyzed on a tandem quadrupole mass spectrometer (Waters). MRM transitions followed on 2 channels were 335.2>195.3 (LTB4) and 339.2>197.3 (LTB4-d4). Based on the amounts of LTB4 found at each inhibitor concentration, a dose-response curve was fitted to the data and an IC50 value was calculated.
as §1, with “NaOH. After incubation for 40 min at room temperature the resulting approximately 500 μM tock of LTA4 was kept at −80° C. for no more than a few days prior to use.” for “NaOH.”

[2] = tested on: ionophore-induced LTB4 production; conditions: oral administration; cited from earlier work
[3] = tested on: ionophore-induced LTB4 production; conditions: oral administration; cited from earlier work; remark: listed apart in the source
[4] = eight weeks of treatment, primate model; cited from earlier work
[5] = Table V, read-out: hLTA4H Enzyme IC50
[6] = Table III, read-out: IC50 (μM) (hLTA4H)
[7] = Table IV, read-out: hLTA4H Enyzme IC 50
[8] = Table I, read-out: IC50 (μM) (hLTA4H)
[9] = Table II, read-out: IC50 (μM)(hLTA4H)

SMILES: CC1Cc2ccccc2N1c1ccc(OC[C@H]2CCCN2)cc1 (stereo partly shown)
IC50 [1, 5]: > 20 µM

SMILES: Clc1c2ccccc2nn1-c1ccc(OC[C@H]2CCCN2)cc1 [Example 12, 3-Chloro-2-[4-((R)-1-pyrrolidin-2-ylmethoxy)-phenyl]-2H-indazole]
IC50 [1, 6]: < 5 µM
IC50 [1, 7]: < 5 µM

SMILES: CN(CCCOc1ccc(-n2nc3ccccc3c2Cl)cc1)CCC(=O)O [Example 5, 3-({3-[4-(3-Chloro-indazol-2-yl)-phenoxy]-propyl}-methyl-amino)-propionic acid hydrochloride salt]
IC50 [1, 8]: < 5 µM
IC50 [1, 7]: < 5 µM

SMILES: CN(CCCC(=O)O)CCOc1ccc(-n2nc3ccccc3c2Cl)cc1 [Example 3, 4-({2-[4-(3-Chloro-indazol-2-yl)-phenoxy]-ethyl}-methyl-amino)butyric acid hydrchloride salt]
IC50 [1, 8]: < 5 µM
IC50 [1, 7]: < 5 µM

SMILES: O=C(O)CCCN1CCC[C@@H]1COc1ccc(-n2nc3ccccc3c2Cl)cc1 [Example 17, 4-{(R)-2-[4-(3-Chloro-indazol-2-yl)-phenoxymethyl]-pyrrolidin-1-yl}-butyric acid Hydrochloride]
IC50 [1, 6]: < 5 µM
IC50 [1, 7]: < 5 µM

SMILES: c1ccc2c(c1)cnn2-c1ccc(OC[C@H]2CCCN2)cc1
IC50 [1, 5]: 5 to 20 µM

SMILES: Clc1c2ccccc2nn1-c1ccc(OC[C@@H]2CCCN2)cc1 [Example 13, 3-Chloro-2-[4-((S)-1-pyrrolidin-2-ylmethoxy)-phenyl]-2H-indazole hydrochloride]
IC50 [1, 6]: < 5 µM
IC50 [1, 7]: < 5 µM

SMILES: Cc1cn(-c2ccc(OC[C@H]3CCCN3)cc2)c2ccccc12
IC50 [1, 5]: > 20 µM

SMILES: CNCCCOc1ccc(-n2nc3ccccc3c2Cl)cc1 [Example 4, {3-[4-(3-Chloro-indazol-2-yl)-phenoxy]-propyl}-methyl-amine hydrochloride]
IC50 [1, 8]: < 5 µM
IC50 [1, 7]: < 5 µM

SMILES: CN(CCCOc1ccc(-n2nc3ccccc3c2Cl)cc1)CCCC(=O)O [Example 6, 4-({3-[4-(3-Chloro-indazol-2-yl)-phenoxy]-propyl}-methyl-amino)butyric acid Hydrochloride]
IC50 [1, 8]: < 5 µM
IC50 [1, 7]: < 5 µM

SMILES: CN(CCCOc1ccc(Cc2ccccc2)cc1)CCC(=O)O.Cl [SC57461]
inhibition of ionophore-induced LTB4 production in mouse blood ex vivo [2]: inhibition of ionophore-induced LTB4 production
inhibition of ionophore-induced LTB4 production in rat peritoneum in vivo [3]: inhibition of ionophore-induced LTB4 production
colitis symptoms [4]: significantly improved colitis symptoms

SMILES: CN(CCOc1ccc(-n2nc3ccccc3c2Cl)cc1)CCC(=O)O [Example 2, 3-({2-[4-(3-Chloro-indazol-2-yl)-phenoxy]-ethyl}-methyl-amino)-propionic acid hydrochloride]
IC50 [1, 8]: < 5 µM
IC50 [1, 7]: < 5 µM

Continued, values first:

IC50 [1, 5]: < 5 µM
SMILES: O=C1c2ccccc2C(=O)N1c1ccc(OCCN2CCCCC2)cc1

IC50 [1, 6]: < 5 µM
IC50 [1, 7]: < 5 µM
SMILES: O=C(O)CCN1CCC[C@@H]1COc1ccc(-n2nc3ccccc3c2Cl)cc1 [Example 16, 3-{(R)-2-[4-(3-Chloro-indazol-2-yl)-phenoxymethyl]-pyrrolidin-1-yl}-propionic acid Hydrochloride]

IC50 [1, 9]: < 5 µM
IC50 [1, 7]: < 5 µM
SMILES: OCC1CCN(CCCOc2ccc(-n3nc4ccccc4c3Cl)cc2)CC1 [Example 11, (1-{3-[4-(3-Chloro-indazol-2-yl)-phenoxy]-propyl}-piperidin-4-yl)-methanol]

IC50 [1, 5]: < 5 µM
SMILES: O=C1c2ccccc2C(=O)N1c1ccc(OC[C@H]2CCCN2)cc1

IC50 [1, 9]: < 5 µM
IC50 [1, 7]: < 5 µM
SMILES: CNC(=O)C1CCN(CCCOc2ccc(-n3nc4ccccc4c3Cl)cc2)CC1 [Example 9, 1-{3-[4-(3-Chloro-indazol-2-yl)-phenoxy]-propyl}-piperidine-4-carboxylic acid methylamide]

IC50 [1, 6]: < 5 µM
IC50 [1, 7]: < 5 µM
SMILES: O=C(O)CCCN1CCC[C@H]1COc1ccc(-n2nc3ccccc3c2Cl)cc1 [Example 19, 4-{(S)-2-[4-(3-Chloro-indazol-2-yl)-phenoxymethyl]-pyrrolidin-1-yl}-butyric acid Hydrochloride]

IC50 [1, 9]: < 5 µM
IC50 [1, 7]: < 5 µM
SMILES: Clc1c2ccccc2nn1-c1ccc(OCCN2CCCCC2)cc1 [Example 1, 3-Chloro-2-[4-(2-piperidin-1-yl-ethoxy)-phenyl]-2H-idazole]

IC50 [1, 6]: < 5 µM
IC50 [1, 7]: < 5 µM
SMILES: O=C(O)CN1CCC[C@H]1COc1ccc(-n2nc3ccccc3c2Cl)cc1 [Example 18, {(S)-2-[4-(3-Chloro-indazol-2-yl)-phenoxymethyl]-pyrrolidin-1-yl}-acetic acid Hydrochloride]

IC50 [1, 9]: < 5 µM
IC50 [1, 7]: < 5 µM
SMILES: O=C(O)C1CCN(CCCOc2ccc(-n3nc4ccccc4c3Cl)cc2)CC1 [Example 8, 1-{3-[4-(3-Chloro-indazol-2-yl)-phenoxy]-propyl}-piperidine-4-carboxylic acid hydrochloride]

IC50 [1, 5]: 5 to 20 µM
SMILES: CN1CCC[C@@H]1COc1ccc(N2Cc3ccccc3C2)cc1

IC50 [1, 9]: < 5 µM
IC50 [1, 7]: < 5 µM
SMILES: NC(=O)C1CCN(CCCOc2ccc(-n3nc4ccccc4c3Cl)cc2)CC1 [Example 10, 1-{3-[4-(3-Chloro-indazol-2-yl)-phenoxy]-propyl}-piperidine-4-carboxylic acid amide]

IC50 [1, 6]: < 5 µM
IC50 [1, 7]: < 5 µM
SMILES: O=C(O)CN1CCC[C@@H]1COc1ccc(-n2nc3ccccc3c2Cl)cc1 [Example 15, {(R)-2-[4-(3-Chloro-indazol-2-yl)-phenoxymethyl]-pyrrolidin-1-yl}-acetic acid Hydrochloride]

From patent US7674802B2, “N-linked aryl heteroaryl inhibitors of LTA4H for treating inflammation” (deCODE genetics, ehf, priority 2005, dated 2010)
